Common to all, as to experiment: Kinase selectivity screen
One experiment concerns the target CSF1R (Homo sapiens, UniProt P07333). The note with it: read-out: % Inhibition CSF1R.
For another experiment, the target named is RET (Homo sapiens, UniProt P07949). Conditions: read-out: % Inhibition RET.
For another experiment, the target named is SRC (Homo sapiens, UniProt P12931). The note with it: read-out: % Inhibition SRC.
In another experiment the target is AKT2 (Homo sapiens, UniProt P31751). Conditions: read-out: % Inhibition AKT2.
A further experiment addresses MAPK14 (Homo sapiens, UniProt Q16539). The note with it: read-out: % Inhibition MAPK14.
In the next experiment the target is PRKCE (Homo sapiens, UniProt Q02156). Conditions: read-out: % Inhibition PRKCE.
Sequence of PRKCE (Q02156 whole entry, species assumed): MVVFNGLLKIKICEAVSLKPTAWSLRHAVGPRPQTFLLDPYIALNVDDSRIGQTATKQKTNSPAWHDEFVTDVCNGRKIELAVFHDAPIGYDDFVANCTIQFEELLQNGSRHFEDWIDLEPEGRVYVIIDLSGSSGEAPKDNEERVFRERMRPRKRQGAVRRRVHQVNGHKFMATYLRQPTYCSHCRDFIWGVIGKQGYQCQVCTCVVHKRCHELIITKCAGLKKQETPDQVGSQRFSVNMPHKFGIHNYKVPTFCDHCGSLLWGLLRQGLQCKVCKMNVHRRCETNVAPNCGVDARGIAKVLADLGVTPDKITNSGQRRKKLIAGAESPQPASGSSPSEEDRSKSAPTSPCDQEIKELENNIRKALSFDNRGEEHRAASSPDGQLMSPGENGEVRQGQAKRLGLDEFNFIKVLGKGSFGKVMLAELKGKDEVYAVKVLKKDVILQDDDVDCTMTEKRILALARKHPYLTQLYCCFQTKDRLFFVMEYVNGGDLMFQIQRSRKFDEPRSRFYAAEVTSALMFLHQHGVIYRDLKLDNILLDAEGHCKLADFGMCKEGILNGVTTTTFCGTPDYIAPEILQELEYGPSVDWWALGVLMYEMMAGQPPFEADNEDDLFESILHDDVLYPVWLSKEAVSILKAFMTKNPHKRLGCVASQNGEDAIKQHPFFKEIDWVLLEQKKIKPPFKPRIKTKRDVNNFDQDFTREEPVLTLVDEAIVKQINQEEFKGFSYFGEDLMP
A further experiment concerns the target PIM2 (Homo sapiens, UniProt Q9P1W9). The note with it: read-out: % Inhibition PIM2.
The next experiment concerns the target CDK7/CCNH/MNAT1 (Homo sapiens, UniProt P50613). Conditions: read-out: % Inhibition CDK7/CCNH/MNAT1.
The next experiment has as its target MAPK8 (Homo sapiens, UniProt P45983). The note with it: read-out: % Inhibition MAPK8.
The target in another experiment is FGFR4 (Homo sapiens, UniProt P22455). The note with it: read-out: % Inhibition FGFR4.
Sequence of FGFR4 (P22455 22-802, species assumed): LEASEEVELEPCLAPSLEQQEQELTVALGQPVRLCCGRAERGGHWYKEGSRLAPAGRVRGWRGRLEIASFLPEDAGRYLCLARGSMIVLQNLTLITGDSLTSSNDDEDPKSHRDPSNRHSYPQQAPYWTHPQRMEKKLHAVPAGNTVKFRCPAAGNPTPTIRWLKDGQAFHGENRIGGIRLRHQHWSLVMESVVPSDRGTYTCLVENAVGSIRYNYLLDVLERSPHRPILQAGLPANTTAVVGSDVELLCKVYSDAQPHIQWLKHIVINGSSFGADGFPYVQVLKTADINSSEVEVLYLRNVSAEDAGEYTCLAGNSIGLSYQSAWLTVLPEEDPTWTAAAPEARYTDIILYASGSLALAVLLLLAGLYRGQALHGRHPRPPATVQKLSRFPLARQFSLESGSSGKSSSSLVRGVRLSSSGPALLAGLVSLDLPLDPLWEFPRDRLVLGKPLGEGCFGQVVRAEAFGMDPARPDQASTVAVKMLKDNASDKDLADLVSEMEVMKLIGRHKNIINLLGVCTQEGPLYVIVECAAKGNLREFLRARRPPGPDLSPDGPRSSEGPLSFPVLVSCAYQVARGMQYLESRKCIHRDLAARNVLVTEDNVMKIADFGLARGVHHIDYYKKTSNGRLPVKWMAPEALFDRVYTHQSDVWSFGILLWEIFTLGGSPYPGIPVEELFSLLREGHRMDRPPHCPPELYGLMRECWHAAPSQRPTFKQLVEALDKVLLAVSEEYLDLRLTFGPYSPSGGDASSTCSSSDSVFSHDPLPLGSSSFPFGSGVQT
In the next experiment the target is RAF1 (Homo sapiens, UniProt P04049). Conditions: read-out: % Inhibition RAF1.
A further experiment deals with MAP2K1 (Homo sapiens, UniProt Q02750). The note with it: read-out: % Inhibition MAP2K1.
Sequence of MAP2K1 (Q02750 whole entry, species assumed): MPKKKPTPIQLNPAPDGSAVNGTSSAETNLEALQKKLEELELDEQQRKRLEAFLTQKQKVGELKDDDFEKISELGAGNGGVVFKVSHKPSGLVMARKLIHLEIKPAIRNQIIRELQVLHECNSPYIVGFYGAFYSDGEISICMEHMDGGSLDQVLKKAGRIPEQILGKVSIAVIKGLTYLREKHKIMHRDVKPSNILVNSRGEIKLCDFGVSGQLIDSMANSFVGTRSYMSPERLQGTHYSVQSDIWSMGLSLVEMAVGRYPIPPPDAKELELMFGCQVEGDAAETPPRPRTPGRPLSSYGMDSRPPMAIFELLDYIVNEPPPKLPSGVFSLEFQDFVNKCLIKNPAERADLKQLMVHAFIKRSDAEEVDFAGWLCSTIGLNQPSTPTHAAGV
The target in another experiment is PIP4K2A (Homo sapiens, UniProt P48426). The note with it: read-out: % Inhibition PIP4K2A.
In another experiment the target is DDR2 (Homo sapiens, UniProt Q16832). The note with it: read-out: % Inhibition DDR2.
Sequence of DDR2 (Q16832 22-855, species assumed): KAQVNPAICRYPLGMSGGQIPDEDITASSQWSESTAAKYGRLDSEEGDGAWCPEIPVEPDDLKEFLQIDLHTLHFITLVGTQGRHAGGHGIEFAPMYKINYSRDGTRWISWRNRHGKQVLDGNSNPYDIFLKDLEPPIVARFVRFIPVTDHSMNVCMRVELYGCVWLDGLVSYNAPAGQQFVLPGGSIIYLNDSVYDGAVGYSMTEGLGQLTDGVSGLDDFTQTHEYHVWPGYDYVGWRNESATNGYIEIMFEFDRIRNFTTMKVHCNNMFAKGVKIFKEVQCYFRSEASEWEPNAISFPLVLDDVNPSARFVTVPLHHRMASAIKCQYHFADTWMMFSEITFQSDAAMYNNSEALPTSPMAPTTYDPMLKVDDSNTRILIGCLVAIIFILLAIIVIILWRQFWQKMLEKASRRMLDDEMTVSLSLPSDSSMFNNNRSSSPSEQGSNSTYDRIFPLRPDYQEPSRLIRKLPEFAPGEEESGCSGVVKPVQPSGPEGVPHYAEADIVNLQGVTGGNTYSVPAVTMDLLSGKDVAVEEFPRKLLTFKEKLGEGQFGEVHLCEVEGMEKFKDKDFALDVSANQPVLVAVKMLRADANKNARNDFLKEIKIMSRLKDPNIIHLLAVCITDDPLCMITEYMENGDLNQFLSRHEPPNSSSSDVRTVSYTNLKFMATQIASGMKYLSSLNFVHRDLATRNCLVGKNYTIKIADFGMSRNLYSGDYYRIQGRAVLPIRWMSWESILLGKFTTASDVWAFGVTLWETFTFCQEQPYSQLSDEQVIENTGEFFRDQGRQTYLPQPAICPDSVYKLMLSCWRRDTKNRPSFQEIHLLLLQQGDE
A further experiment deals with TGFBR1 (Homo sapiens, UniProt P36897). Conditions: read-out: % Inhibition TGFBR1.

Data on 1 compound can be found in patent US10604524B2, “Pyrropyrimidine compounds as MNKs inhibitors” (LIFEARC, priority 2015, dated 2020).

Sequence of PIM2 (Q9P1W9 whole entry, species assumed): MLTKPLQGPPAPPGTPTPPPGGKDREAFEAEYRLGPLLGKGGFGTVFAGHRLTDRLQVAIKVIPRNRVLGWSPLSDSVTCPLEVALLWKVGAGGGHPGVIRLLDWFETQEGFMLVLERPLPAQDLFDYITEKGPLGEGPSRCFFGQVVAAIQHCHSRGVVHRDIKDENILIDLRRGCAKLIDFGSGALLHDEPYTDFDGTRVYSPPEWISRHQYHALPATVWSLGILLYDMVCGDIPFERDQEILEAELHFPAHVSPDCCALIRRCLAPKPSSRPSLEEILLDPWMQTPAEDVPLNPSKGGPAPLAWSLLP
Sequence of MAPK14 (Q16539 whole entry, species assumed): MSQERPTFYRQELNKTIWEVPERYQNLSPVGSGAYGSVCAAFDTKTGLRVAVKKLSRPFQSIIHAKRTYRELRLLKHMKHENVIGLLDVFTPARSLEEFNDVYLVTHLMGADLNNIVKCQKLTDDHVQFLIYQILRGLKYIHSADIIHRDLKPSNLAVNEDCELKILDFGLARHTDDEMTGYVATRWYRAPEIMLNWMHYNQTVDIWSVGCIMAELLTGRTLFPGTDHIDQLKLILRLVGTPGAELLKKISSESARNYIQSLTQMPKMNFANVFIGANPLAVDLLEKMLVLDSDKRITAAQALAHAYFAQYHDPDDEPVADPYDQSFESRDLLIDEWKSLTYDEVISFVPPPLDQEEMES
Sequence of MAPK8 (P45983 whole entry, species assumed): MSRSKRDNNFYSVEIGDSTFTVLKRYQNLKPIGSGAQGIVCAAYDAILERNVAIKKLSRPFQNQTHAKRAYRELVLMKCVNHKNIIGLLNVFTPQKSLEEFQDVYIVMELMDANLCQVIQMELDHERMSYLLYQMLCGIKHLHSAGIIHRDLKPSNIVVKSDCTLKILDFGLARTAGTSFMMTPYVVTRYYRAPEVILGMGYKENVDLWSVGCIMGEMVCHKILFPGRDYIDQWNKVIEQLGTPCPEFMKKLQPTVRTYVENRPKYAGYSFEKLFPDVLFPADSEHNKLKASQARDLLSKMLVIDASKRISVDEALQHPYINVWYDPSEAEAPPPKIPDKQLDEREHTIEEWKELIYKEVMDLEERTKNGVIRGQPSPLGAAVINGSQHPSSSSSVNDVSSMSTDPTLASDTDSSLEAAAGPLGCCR
Sequence of CDK7/CCNH/MNAT1 (P50613 whole entry, species assumed): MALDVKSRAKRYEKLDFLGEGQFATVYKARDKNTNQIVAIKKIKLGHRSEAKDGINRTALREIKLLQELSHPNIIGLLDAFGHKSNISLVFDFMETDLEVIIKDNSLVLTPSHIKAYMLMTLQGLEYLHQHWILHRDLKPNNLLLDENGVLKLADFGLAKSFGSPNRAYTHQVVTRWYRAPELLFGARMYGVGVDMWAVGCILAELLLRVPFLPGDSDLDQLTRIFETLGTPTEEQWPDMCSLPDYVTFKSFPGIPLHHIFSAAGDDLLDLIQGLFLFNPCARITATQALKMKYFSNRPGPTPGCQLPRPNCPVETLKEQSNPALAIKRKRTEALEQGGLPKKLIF
Sequence of CDK7/CCNH/MNAT1 (P51946 whole entry partner, species assumed): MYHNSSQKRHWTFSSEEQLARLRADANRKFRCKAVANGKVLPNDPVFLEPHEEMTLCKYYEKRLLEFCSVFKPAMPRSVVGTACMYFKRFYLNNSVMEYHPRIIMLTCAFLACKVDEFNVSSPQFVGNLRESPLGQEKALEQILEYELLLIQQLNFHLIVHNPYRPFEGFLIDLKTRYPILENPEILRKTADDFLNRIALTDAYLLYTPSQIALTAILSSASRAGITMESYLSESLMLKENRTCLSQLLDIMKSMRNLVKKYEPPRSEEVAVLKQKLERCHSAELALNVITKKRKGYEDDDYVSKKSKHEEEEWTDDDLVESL
Sequence of CDK7/CCNH/MNAT1 (P51948 whole entry partner, species assumed): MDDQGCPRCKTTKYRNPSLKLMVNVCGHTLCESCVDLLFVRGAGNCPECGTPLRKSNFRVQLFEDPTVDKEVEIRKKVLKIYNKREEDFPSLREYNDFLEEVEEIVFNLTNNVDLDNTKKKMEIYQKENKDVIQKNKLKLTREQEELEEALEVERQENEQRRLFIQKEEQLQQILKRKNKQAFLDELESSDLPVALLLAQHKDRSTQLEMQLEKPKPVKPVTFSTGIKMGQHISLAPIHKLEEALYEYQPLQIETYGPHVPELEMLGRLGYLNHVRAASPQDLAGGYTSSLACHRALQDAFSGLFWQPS

On to `CC(C)Oc1cc(F)ccc1Nc1ncnc2cc(C(=O)NCCCN(C)C)n(C)c12` [Example 40, N-[3-(dimethylamino)propyl]-4-{[4-fluoro-2-(propan-2-yloxy)phenyl]amino}-5-methyl-5H-pyrrolo[3,2-d]pyrimidine-6-carboxamide], for which the inhibition at 1 µM was found to be 8% on CSF1R; 1% on RET; 0% on SRC; 0% at AKT2; 0% on MAPK14; 0% at PRKCE. Also, the inhibition at 1 µM came out at 0% on PIM2; 5% at CDK7/CCNH/MNAT1; 0% at MAPK8; 0% on FGFR4; 0% at RAF1; 0% on MAP2K1. Also, the values for the inhibition at 1 µM on PIP4K2A, on DDR2 and on TGFBR1 were 7%, 2% and 0%, respectively.
